The target in assay [1] is T1, EZH2 (Homo sapiens, UniProt Q15910).
T1 construct: GST
Put plainly: In vitro methyltransferase (HMTase) assay with mass spectrometry. The class given is biochemical. The conditions noted are these: 100 μM synthetic peptide, GST-EZH2, LC-MS (FIG. 4). Here is the method: Small quantities (100 μM) of synthetic peptides (RORα WT) were used as substrates in the HMTase assay with EZH2 enzyme; the reaction was stopped by 10% TCA precipitation for 10 min at 4° C. After removing the precipitates by centrifugation, the supernatants were retrieved and methylated peptides in the supernatants were analyzed by LC-MS. The eluted peptides were separated on a Luna column (C18 PepMap 100, 150×1 mm 5 micron) with a linear gradient (A: 100% H2O, 0.1% formic acid, B: 100% ACN, 0.1% formic acid) at a flow rate of […]. Typically, 2 μL of sample was injected. Mass spectrometry was performed on a linear ion trap mass spectrometer (LCQ DECA XP, Thermo Finningan) coupled to a nano-LC system (NANOSPACE SI-2, Shiseido). The MS method consisted of a cycle combining one full MS scan (Mass range: 160-2000 m/z).
The association of EZH2 with RORα at endogenous levels was confirmed by co-immunoprecipitation analysis (FIG. 3). To assess whether RORα is methylated by EZH2 and to determine the methylation status of RORα, peptides bearing amino acids 31-40 of RORα (LNQESARKSE) were in vitro methylated by EZH2 and analyzed by mass spectrometry. […]

The test system of the next assay is MCF7 breast cancer cells. The experiment in a line: Cell transformation assay (anchorage-independent growth in soft agar). The class given is cell-based. The conditions noted are these: 3 weeks (FIG. 60). Details: dose or concentration left out as unconfirmed. Here is the method: Representative images are shown for each group. Immunoblot analysis was performed to detect each protein level. […]

Another assay concerns RORα ubiquitination. Put plainly: RORα ubiquitination assay with DZNep. The class given is cell-based. The conditions noted are these: HEK-293T cells, DZNep 1 μM, 24 hr (FIG. 20). Here is the method:
Cells were transfected with combinations of plasmids including HisMax-ubiquitin. After incubation for 48 hrs, cells were treated with MG132, lysed in buffer A (6 M guanidinium-HCl, 0.1 M Na2HPO4/NaH2PO4, 0.01 M Tris-Cl [pH 8.0], 5 mM imidazole, and 10 mM β-mercaptoethanol), and incubated with Ni^2+-NTA beads (Qiagen) for 4 hrs at room temperature. The beads were sequentially washed with buffer A, buffer B (8 M urea, 0.1 M Na2PO4/NaH2PO4, 0.01 M Tris-Cl [pH 8.0], and 10 mM β-mercaptoethanol), and buffer C (8 M urea, 0.1 M Na2PO4/NaH2PO4, 0.01 M Tris-Cl [pH 6.3], and 10 mM β-mercaptoethanol). Bound proteins were eluted with buffer D (200 mM imidazole, 0.15 M Tris-Cl [pH 6.7], 30% glycerol, 0.72 M β-mercaptoethanol, and 5% SDS), and subject to immunoblot analysis.
In order to determine whether the ubiquitin-proteasome pathway is responsible for RORα degradation and to further examine whether the introduction of EZH2 augments RORα ubiquitination by allowing increased RORα methylation, we performed an RORα ubiquitination assay with EZH2 in the presence of a 26S proteasome inhibitor, MG132. […] To further examine whether K38 methylation directly affects RORα ubiquitination, we performed a ubiquitination assay for RORα WT and RORα K38A in the presence of MG132. Indeed, RORα K38A mutation led to a marked reduction in RORα ubiquitination compared to RORα WT (FIG. 18). […]

For assay [2], the system named is EZH2. Put plainly: Immunoblot of EZH2 and RORα protein levels with DZNep. The conditions noted are these: MCF7 cells, DZNep 1 μM, 24 hr, immunoblot (FIG. 19). The class given is cell-based. An excerpt:
In order to determine whether the ubiquitin-proteasome pathway is responsible for RORα degradation and to further examine whether the introduction of EZH2 augments RORα ubiquitination by allowing increased RORα methylation, we performed an RORα ubiquitination assay with EZH2 in the presence of a 26S proteasome inhibitor, MG132. […] To further examine whether K38 methylation directly affects RORα ubiquitination, we performed a ubiquitination assay for RORα WT and RORα K38A in the presence of MG132. Indeed, RORα K38A mutation led to a marked reduction in RORα ubiquitination compared to RORα WT (FIG. 18). Next, we examined whether an EZH2 small molecule inhibitor, exemplified by DZNep, rescues the EZH2-mediated degradation of RORα.
On the technique in general: In western blotting, separated proteins are transferred to a membrane and probed.

The source of these data is US9783575B2, “Methyl degron peptide and methods of controlling protein lifespan” (Seoul National University (SNU) R&D Foundation, priority 2012, dated 2017).

T1 sequence (Q15910 whole entry, species assumed): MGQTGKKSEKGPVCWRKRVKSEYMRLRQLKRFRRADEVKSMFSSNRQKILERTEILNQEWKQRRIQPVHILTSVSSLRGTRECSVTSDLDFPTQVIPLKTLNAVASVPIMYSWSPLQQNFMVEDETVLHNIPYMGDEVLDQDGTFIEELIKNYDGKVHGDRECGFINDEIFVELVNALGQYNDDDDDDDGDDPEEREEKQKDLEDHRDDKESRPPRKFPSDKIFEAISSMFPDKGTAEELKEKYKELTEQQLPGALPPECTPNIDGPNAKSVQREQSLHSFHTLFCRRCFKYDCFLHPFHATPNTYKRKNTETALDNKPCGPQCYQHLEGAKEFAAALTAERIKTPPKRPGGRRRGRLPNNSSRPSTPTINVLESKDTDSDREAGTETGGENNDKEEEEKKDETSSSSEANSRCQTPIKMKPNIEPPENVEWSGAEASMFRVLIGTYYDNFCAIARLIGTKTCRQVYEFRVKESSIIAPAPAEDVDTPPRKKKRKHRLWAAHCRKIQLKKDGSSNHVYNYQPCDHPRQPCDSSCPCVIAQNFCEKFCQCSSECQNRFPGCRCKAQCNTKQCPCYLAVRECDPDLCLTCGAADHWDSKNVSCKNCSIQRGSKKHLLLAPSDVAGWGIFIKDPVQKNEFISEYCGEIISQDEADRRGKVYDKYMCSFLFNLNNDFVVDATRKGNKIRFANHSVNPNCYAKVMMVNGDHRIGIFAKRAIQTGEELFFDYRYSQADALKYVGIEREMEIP

As to “LNQESARKSE [RORα wild-type (WT) peptide, peptide bearing amino acids 31-40 of RORα]”, in the assay with EZH2 [1], the “methylation of peptide by EZH2” value is reported as “addition of one methyl group to the K38 site”.
Turning to `Nc1nccc2c1ncn2C1C=C(CO)C(O)C1O` (centres unmarked) [DZNep], in the assay with MCF7 breast cancer cells, the “cellular transformation (colony formation in soft agar)” value is listed as “inhibitory effect on cellular transformation”. The RORα ubiquitination levels entry in the assay on RORα ubiquitination is on record as “decreased”. For the same compound, in the assay on EZH2 [2], the EZH2 protein levels result is “reduction of EZH2 protein levels” and the RORα protein levels result is on record as “increases in RORα protein levels”.
